Activity calls are given as the source filed them. For most assays here, no stated cut-off is given here; in the data, actives have a measured AC50 and inactives only a lower limit.

What all share (type): functional
The target of experiment [1] is T1, Apoptotic protease-activating factor 1 (Homo sapiens, UniProt O14727).
T1 sequence (O14727 whole entry): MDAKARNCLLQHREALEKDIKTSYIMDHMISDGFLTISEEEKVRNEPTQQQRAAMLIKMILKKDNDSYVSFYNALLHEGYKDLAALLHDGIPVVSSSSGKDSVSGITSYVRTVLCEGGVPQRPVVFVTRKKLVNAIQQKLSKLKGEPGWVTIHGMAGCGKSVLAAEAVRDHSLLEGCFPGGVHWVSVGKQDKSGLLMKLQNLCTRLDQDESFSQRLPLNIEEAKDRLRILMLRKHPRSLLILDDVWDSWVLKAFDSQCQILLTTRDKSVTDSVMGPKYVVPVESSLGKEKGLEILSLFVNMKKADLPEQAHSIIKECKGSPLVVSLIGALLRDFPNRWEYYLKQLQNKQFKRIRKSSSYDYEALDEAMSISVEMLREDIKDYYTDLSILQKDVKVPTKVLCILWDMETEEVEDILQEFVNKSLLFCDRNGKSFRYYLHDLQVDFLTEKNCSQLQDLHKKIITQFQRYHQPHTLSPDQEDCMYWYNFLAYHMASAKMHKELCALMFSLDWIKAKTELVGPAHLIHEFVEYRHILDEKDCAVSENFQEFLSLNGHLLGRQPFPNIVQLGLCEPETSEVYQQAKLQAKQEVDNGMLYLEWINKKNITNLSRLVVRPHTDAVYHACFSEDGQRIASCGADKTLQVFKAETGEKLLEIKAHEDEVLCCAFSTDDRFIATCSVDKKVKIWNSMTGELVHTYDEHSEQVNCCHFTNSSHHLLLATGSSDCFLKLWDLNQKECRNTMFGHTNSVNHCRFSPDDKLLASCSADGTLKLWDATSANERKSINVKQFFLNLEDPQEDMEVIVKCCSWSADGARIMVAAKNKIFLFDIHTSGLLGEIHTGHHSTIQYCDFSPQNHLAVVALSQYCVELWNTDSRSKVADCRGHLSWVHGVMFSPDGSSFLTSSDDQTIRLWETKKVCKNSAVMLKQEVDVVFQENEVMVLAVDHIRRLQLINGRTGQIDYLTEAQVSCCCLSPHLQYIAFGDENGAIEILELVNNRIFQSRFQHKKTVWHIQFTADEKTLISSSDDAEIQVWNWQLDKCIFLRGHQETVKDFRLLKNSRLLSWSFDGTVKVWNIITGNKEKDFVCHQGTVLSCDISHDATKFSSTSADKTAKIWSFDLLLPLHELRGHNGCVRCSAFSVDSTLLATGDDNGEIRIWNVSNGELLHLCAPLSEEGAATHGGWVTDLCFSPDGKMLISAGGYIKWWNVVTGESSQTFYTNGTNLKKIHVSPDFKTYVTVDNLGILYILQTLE

The target of experiment [2] is T2, Replicative DNA helicase DnaB (Mycobacterium tuberculosis, UniProt P9WMR3).
T2 sequence (P9WMR3 whole entry): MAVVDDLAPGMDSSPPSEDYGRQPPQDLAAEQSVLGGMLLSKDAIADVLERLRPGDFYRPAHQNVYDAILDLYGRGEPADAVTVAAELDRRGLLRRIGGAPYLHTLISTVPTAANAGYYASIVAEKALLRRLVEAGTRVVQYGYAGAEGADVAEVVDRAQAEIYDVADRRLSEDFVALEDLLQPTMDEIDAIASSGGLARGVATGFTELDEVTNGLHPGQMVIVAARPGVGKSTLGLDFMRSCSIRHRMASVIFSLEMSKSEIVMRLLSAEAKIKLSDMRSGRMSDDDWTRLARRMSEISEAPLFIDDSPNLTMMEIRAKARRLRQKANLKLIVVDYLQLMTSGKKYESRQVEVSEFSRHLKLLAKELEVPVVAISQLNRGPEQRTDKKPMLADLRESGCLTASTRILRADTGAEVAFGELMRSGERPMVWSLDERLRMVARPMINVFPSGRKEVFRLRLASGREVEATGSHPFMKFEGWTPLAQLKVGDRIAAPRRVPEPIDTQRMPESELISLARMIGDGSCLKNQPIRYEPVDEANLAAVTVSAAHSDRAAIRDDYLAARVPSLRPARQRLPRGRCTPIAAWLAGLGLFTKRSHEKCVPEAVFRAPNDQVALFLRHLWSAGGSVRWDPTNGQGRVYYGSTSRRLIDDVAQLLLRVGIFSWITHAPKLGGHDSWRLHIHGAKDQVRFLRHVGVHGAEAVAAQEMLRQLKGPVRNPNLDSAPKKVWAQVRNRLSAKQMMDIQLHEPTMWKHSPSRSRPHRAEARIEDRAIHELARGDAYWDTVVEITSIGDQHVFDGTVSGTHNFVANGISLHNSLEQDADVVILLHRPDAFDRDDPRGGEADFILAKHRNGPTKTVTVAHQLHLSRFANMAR
Nature of the experiment: DnaB intein splicing inhibitors, dose response, biochemical, cell-free fluorescence (AID 449749).

Experiment [3] can be described thus: reduction of Shn3 3'UTR-driven luciferase in osteoblasts – cell-based, Clone20 osteoblasts, firefly luciferase, cherry-picked, dose response (AID 624132).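 Further: firefly luciferase luminescence from reporter carrying the Shn3 3'UTR in osteoblasts.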
Experiment [4] in a line: loss of viability in HepG2 cells – cell-based, CellTiter-Glo, cherry-picked, cytotoxicity control for Shn3 inhibitor project, dose response (AID 624134).
A short description of experiment [5]: non-specific 3'UTR reporter inhibition in Clone20-Shn3RL – cell-based, Renilla luciferase, cherry-picked, counter-screen for Shn3 inhibitor project, dose response (AID 624133). Background: The purpose of a counterscreen is to sort out artefacts and off-target activity.

In the case of `O=C(c1ccccc1)c1coc2c1C(=O)c1ccccc1C2=O`, the IC50 (in general, the concentration at which inhibition is half-maximal) in experiment [1] is 15 µM (active).
`CCOC(=O)c1c(C)oc2c1c(/C=N/CCC(=O)O)c(O)c1ccccc12`: the AC50 (commonly the concentration giving half of the maximal activity seen) in experiment [2] is > 380 µM (inactive). Moreover, the IC50 in experiment [1] was 12.3 µM (active).
With `O=[N+]([O-])c1c(NCCO)cc(Sc2nc3ccccc3s2)c2nonc12`, the AC50 was 1.64 µM (active) in experiment [3], 1.05 µM (active) in experiment [2], 32.1 µM (active) in experiment [4] and 10.7 µM (active) in experiment [5].
Consider `CC(=O)NC(c1ccc2ccccc2c1)c1ccc2cccnc2c1O` (stereo unspecified), for which the AC50 in experiment [3] is 0.422 µM (active); in experiment [4], 0.867 µM (active); in experiment [5], 0.51 µM (active).
`COc1ccc2c(c1)CCC(/C=N/c1ccc3c(c1)OCO3)=C2O`: the concentration for half-maximal inhibition (IC50) in experiment [1] was 17.4 µM (active).
In the case of `CCc1ccc(Nc2n[n+](-c3ccccc3)c(-c3c(Cl)cccc3Cl)s2)cc1`, the AC50 is 5.4 µM (active) in experiment [3], 3.71 µM (active) in experiment [2], 14.6 µM (active) in experiment [4] and 19.4 µM (active) in experiment [5].
In the case of `CCOC(=O)c1c(C)[nH]c2c1-c1ccccc1C(=O)C2=O`, the AC50 in experiment [3] is 0.496 µM (active); in experiment [2] it was 1.34 µM (active); in experiment [4] it was 3.96 µM (active); in experiment [5], 1 µM (active).
On to `CCOC(=O)C1=C(c2ccccc2)N=C(N)NC1c1ccc(OCc2ccc(Cl)cc2)c(OC)c1` (stereo unspecified), for which the AC50 in experiment [2] is 8.68 µM (active). Further, the IC50 in experiment [1] was 14.6 µM (active).

Values taken from ChEMBL document CHEMBL1201862, “PubChem BioAssay data set” (2004).
